Patent US20140323300A1, “HERBICIDAL COMPOUNDS” (SYNGENTA LIMITED, priority 2011, published 2014)

Key:
[1] = tested on: Amaranthus retoflexus (AMARE); assay: Pre-emergence glasshouse herbicide test; assay type: in vivo; conditions: pre-emergence (sprayed after one day cultivation), 1000 g/h, evaluated after 13 days, five point scale
In short: (§1)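 Damage was rated 13 days after treatment on a five-point scale (1 = 0–19%, 5 = 80–100%). The compound, formulated in 50:50 acetone/water with 0.5% Tween 20, was sprayed at 1000 g/h on pots one day (pre) or 8 days (post) after sowing, kept in a glasshouse at 24/16° C, 14 h light, 65% humidity.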

[2] = tested on: Ipomoea hederacea (IPOHE); assay: Pre-emergence glasshouse herbicide test; assay type: in vivo; conditions: pre-emergence (sprayed after one day cultivation), 1000 g/h, evaluated after 13 days, five point scale
In short: as §1

[3] = tested on: Alopecurus myosuroides (ALOMY); assay: Pre-emergence glasshouse herbicide test; assay type: in vivo; conditions: pre-emergence (sprayed after one day cultivation), 1000 g/h, evaluated after 13 days, five point scale
In short: as §1

[4] = tested on: Echinochloa crus-galli (ECHCG); assay: Pre-emergence glasshouse herbicide test; assay type: in vivo; conditions: pre-emergence (sprayed after one day cultivation), 1000 g/h, evaluated after 13 days, five point scale
In short: as §1

Setaria faberi (SETFA) [5] = assay: Pre-emergence glasshouse herbicide test; assay type: in vivo; conditions: pre-emergence (sprayed after one day cultivation), 1000 g/h, evaluated after 13 days, five point scale
In short: as §1

Solanum nigrum (SOLNI) [6] = assay: Pre-emergence glasshouse herbicide test; assay type: in vivo; conditions: pre-emergence (sprayed after one day cultivation), 1000 g/h, evaluated after 13 days, five point scale
In short: as §1

[7] = tested on: Amaranthus retoflexus (AMARE); assay: Post-emergence glasshouse herbicide test; assay type: in vivo; conditions: post-emergence (sprayed after 8 days cultivation), 1000 g/h, evaluated after 13 days, five point scale
In short: as §1

[8] = tested on: Ipomoea hederacea (IPOHE); assay: Post-emergence glasshouse herbicide test; assay type: in vivo; conditions: post-emergence (sprayed after 8 days cultivation), 1000 g/h, evaluated after 13 days, five point scale
In short: as §1

[9] = tested on: Alopecurus myosuroides (ALOMY); assay: Post-emergence glasshouse herbicide test; assay type: in vivo; conditions: post-emergence (sprayed after 8 days cultivation), 1000 g/h, evaluated after 13 days, five point scale
In short: as §1

[10] = tested on: Echinochloa crus-galli (ECHCG); assay: Post-emergence glasshouse herbicide test; assay type: in vivo; conditions: post-emergence (sprayed after 8 days cultivation), 1000 g/h, evaluated after 13 days, five point scale
In short: as §1

Setaria faberi (SETFA) [11] = assay: Post-emergence glasshouse herbicide test; assay type: in vivo; conditions: post-emergence (sprayed after 8 days cultivation), 1000 g/h, evaluated after 13 days, five point scale
In short: as §1

Solanum nigrum (SOLNI) [12] = assay: Post-emergence glasshouse herbicide test; assay type: in vivo; conditions: post-emergence (sprayed after 8 days cultivation), 1000 g/h, evaluated after 13 days, five point scale
In short: as §1

SMILES	percentage damage caused to the plant, PRE Application AMARE [1]	percentage damage caused to the plant, PRE Application IPOHE [2]	percentage damage caused to the plant, PRE Application ALOMY [3]	percentage damage caused to the plant, PRE Application ECHCG [4]	percentage damage caused to the plant, PRE Application SETFA (Setaria faberi (SETFA) [5])	percentage damage caused to the plant, PRE Application SOLNI (Solanum nigrum (SOLNI) [6])	percentage damage caused to the plant, POST Application AMARE [7]	percentage damage caused to the plant, POST Application IPOHE [8]	percentage damage caused to the plant, POST Application ALOMY [9]	percentage damage caused to the plant, POST Application ECHCG [10]	percentage damage caused to the plant, POST Application SETFA (Setaria faberi (SETFA) [11])	percentage damage caused to the plant, POST Application SOLNI (Solanum nigrum (SOLNI) [12])	melting point [°C]
C=C(C)C1C=NN(c2ccc(C(F)(F)F)cc2S(C)(=O)=O)C(=O)C1=O (stereo not shown) [Compound 1.039, 4-Isopropenyl-1-[2-methylsulfonyl-4-(trifluoromethyl)phenyl]-4H-pyridazine-5,6-dione]	5 (5=80-100%)	5 (5=80-100%)	5 (5=80-100%)	5 (5=80-100%)	5 (5=80-100%)	5 (5=80-100%)	5 (5=80-100%)	5 (5=80-100%)	5 (5=80-100%)	5 (5=80-100%)	5 (5=80-100%)	5 (5=80-100%)	144 to 147
Cc1c(-n2ncc([S+](C)[O-])c(O)c2=O)ccc(S(C)(=O)=O)c1C1=NOCC1 (stereo not shown) [Compound 1.043]	5 (5=80-100%)	3 (3=40-59%)	1 (1=0-19%)	3 (3=40-59%)	3 (3=40-59%)	4 (4=60-79%)	5 (5=80-100%)	3 (3=40-59%)	1 (1=0-19%)	3 (3=40-59%)	3 (3=40-59%)	4 (4=60-79%)	–
CC(=O)NC(C)(C)Cc1cnn(-c2ccc(C(F)(F)F)cc2S(C)(=O)=O)c(=O)c1O [Compound 1.044]	5 (5=80-100%)	4 (4=60-79%)	1 (1=0-19%)	5 (5=80-100%)	2 (2=20-39%)	4 (4=60-79%)	5 (5=80-100%)	4 (4=60-79%)	1 (1=0-19%)	5 (5=80-100%)	2 (2=20-39%)	4 (4=60-79%)	–
CCc1cnn(-c2ccc(C(F)(F)F)cc2S(C)(=O)=O)c(=O)c1O [Compound 1.045]	5 (5=80-100%)	5 (5=80-100%)	5 (5=80-100%)	5 (5=80-100%)	5 (5=80-100%)	5 (5=80-100%)	5 (5=80-100%)	5 (5=80-100%)	5 (5=80-100%)	5 (5=80-100%)	5 (5=80-100%)	5 (5=80-100%)	–
CS(=O)(=O)c1cc(Cl)ccc1-n1ncc(S(C)(=O)=O)c(O)c1=O [Compound 1.047]	2 (2=20-39%)	2 (2=20-39%)	1 (1=0-19%)	1 (1=0-19%)	1 (1=0-19%)	2 (2=20-39%)	2 (2=20-39%)	2 (2=20-39%)	1 (1=0-19%)	1 (1=0-19%)	1 (1=0-19%)	2 (2=20-39%)	–
CSc1cnn(-c2ccc(Cl)cc2S(C)(=O)=O)c(=O)c1O [Compound 1.048]	4 (4=60-79%)	3 (3=40-59%)	1 (1=0-19%)	3 (3=40-59%)	2 (2=20-39%)	4 (4=60-79%)	4 (4=60-79%)	3 (3=40-59%)	1 (1=0-19%)	3 (3=40-59%)	2 (2=20-39%)	4 (4=60-79%)	–
C=Cc1cnn(-c2ccc(C(F)(F)F)cc2S(C)(=O)=O)c(=O)c1O [Compound 1.053]	5 (5=80-100%)	5 (5=80-100%)	4 (4=60-79%)	5 (5=80-100%)	5 (5=80-100%)	5 (5=80-100%)	5 (5=80-100%)	5 (5=80-100%)	4 (4=60-79%)	5 (5=80-100%)	5 (5=80-100%)	5 (5=80-100%)	–
